From the supplement of paper PMC10307832

Experiments:
Test in all cases: relative viability (nuclei count vs DMSO), 5 days (fraction); higher = more cells survive
[1] = compound: C1/C(=C\C2=CC=CS2)/C(=O)/C(=C/C3=CC=CS3)/C1 + Nc1nc2[nH]cc(CCc3ccc(C(=O)N[C@@H](CCC(=O)O)C(=O)O)cc3)c2c(=O)[nH]1 [Pemetrexed] (partner 0.2 µM)
Procedure, shortened: (§1)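 Lung cancer cell lines, seeded in 1536-well plates, were treated the following day by pin tool with a single drug or with five library-drug doses (not always all listed) in √10 steps on top of a fixed anchor-drug dose. Cells were fixed and nuclei stained in one step after 5 days, and nuclei were counted. Relative viability is the nuclei count for treated wells divided by that for vehicle wells, reported as medians of duplicate plates.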

[2] = compound: C1/C(=C\C2=CC=CS2)/C(=O)/C(=C/C3=CC=CS3)/C1 + O=C(CCCCCCC(=O)Nc1ccccc1)NO [Vorinostat] (partner 1 µM)
Procedure, shortened: as §1

[3] = compound: C[C@]12O[C@H](C[C@]1(O)CO)n1c3ccccc3c3c4c(c5c6ccccc6n2c5c31)CNC4=O [Lestaurtinib] + Cc1cc(Nc2cc(N3CCN(C)CC3)nc(Sc3ccc(NC(=O)C4CC4)cc3)n2)n[nH]1 [Tozasertib] (partner 0.1 µM)
Procedure, shortened: as §1

Lestaurtinib + Olaparib = compound: C[C@]12O[C@H](C[C@]1(O)CO)n1c3ccccc3c3c4c(c5c6ccccc6n2c5c31)CNC4=O [Lestaurtinib] + O=C(c1cc(Cc2n[nH]c(=O)c3ccccc23)ccc1F)N1CCN(C(=O)C2CC2)CC1 [Olaparib] (partner 8 µM)
Procedure, shortened: as §1

Cell Line | relative viability ([1]; first compound 0.2 µM) | relative viability ([1]; first compound 0.6325 µM) | relative viability ([1]; first compound 2 µM) | relative viability ([1]; first compound 6.325 µM) | relative viability ([1]; first compound 20 µM) | relative viability ([2]; first compound 0.2 µM) | relative viability ([2]; first compound 0.6325 µM) | relative viability ([2]; first compound 2 µM) | relative viability ([2]; first compound 6.325 µM) | relative viability ([2]; first compound 20 µM) | relative viability ([3]; first compound 0.005 µM) | relative viability ([3]; first compound 0.01581 µM) | relative viability ([3]; first compound 0.05 µM) | relative viability ([3]; first compound 0.1581 µM) | relative viability ([3]; first compound 0.5 µM) | relative viability (Lestaurtinib + Olaparib; first compound 0.005 µM) | relative viability (Lestaurtinib + Olaparib; first compound 0.01581 µM) | relative viability (Lestaurtinib + Olaparib; first compound 0.05 µM) | relative viability (Lestaurtinib + Olaparib; first compound 0.1581 µM) | relative viability (Lestaurtinib + Olaparib; first compound 0.5 µM)
SK-LU-1 | 1.12 | 1.03 | 0.942 | 0.829 | 1.02 | 0.849 | 0.764 | 0.75 | 0.677 | 0.774 | 0.288 | 0.349 | 0.267 | 0.293 | 0.204 | 0.431 | 0.397 | 0.382 | 0.362 | 0.218
LOU-NH91 | 0.331 | 0.401 | 0.316 | 0.37 | 0.375 | 1.03 | 0.934 | 1.01 | 0.782 | 0.973 | 0.61 | 0.602 | 0.628 | 0.496 | 0.295 | 0.894 | 0.903 | 0.89 | 0.712 | 0.531
LXF-289 | 0.911 | 0.839 | 0.889 | 0.858 | 0.852 | 0.821 | 0.829 | 0.772 | 0.732 | 0.724 | 0.229 | 0.206 | 0.194 | 0.203 | 0.141 | 1.09 | 1.08 | 0.753 | 0.852 | 0.172
NCI-H1299 |  |  |  |  |  |  |  |  |  |  |  |  |  |  |  | 0.994 | 1.06 | 0.814 | 0.89 | 0.721
HARA | 0.249 | 0.254 | 0.228 | 0.222 | 0.241 | 0.722 | 0.498 | 0.641 | 0.485 | 0.458 | 0.126 | 0.106 | 0.111 | 0.108 | 0.102 | 1.03 | 0.899 | 0.441 | 0.886 | 0.237
LU99A | 0.217 | 0.185 | 0.172 | 0.17 | 0.164 | 0.461 | 0.475 | 0.462 | 0.441 | 0.387 | 0.287 | 0.297 | 0.271 | 0.218 | 0.226 | 0.211 | 0.25 | 0.161 | 0.196 | 0.142
201T | 0.351 | 0.367 | 0.333 | 0.313 | 0.33 | 0.965 | 0.951 | 1.07 | 0.728 | 0.935 | 1 | 0.984 | 1.05 | 0.955 | 0.354 | 0.89 | 0.712 | 0.882 | 0.937 | 0.552
HCC-827 | 0.262 | 0.226 | 0.243 | 0.248 | 0.284 | 0.999 | 0.897 | 0.908 | 0.764 | 0.822 | 0.492 | 0.405 | 0.396 | 0.348 | 0.217 | 0.585 | 0.654 | 0.665 | 0.508 | 0.484
NCI-H1666 | 0.82 | 0.84 | 0.877 | 0.791 | 0.813 | 1.09 | 1.02 | 0.874 | 0.893 | 0.928 | 0.656 | 0.663 | 0.686 | 0.531 | 0.373 | 0.779 | 0.799 | 0.871 | 0.976 | 0.827
NCI-H1915 | 0.456 | 0.529 | 0.479 | 0.447 | 0.475 | 0.568 | 0.546 | 0.551 | 0.433 | 0.528 | 0.498 | 0.532 | 0.363 | 0.49 | 0.214 | 0.259 | 0.285 | 0.273 | 0.296 | 0.143
NCI-H2009 | 1.05 | 1.01 | 1 |  | 0.977 | 0.721 | 0.733 | 0.729 |  | 0.68 | 0.783 | 0.832 | 0.625 | 0.454 | 0.359 | 0.589 | 0.754 | 0.577 | 0.843 | 0.473
ChaGo-K-1 | 0.259 | 0.26 | 0.278 | 0.224 | 0.25 | 0.761 | 0.749 | 0.703 | 0.511 | 0.254 | 0.221 | 0.254 | 0.243 | 0.231 | 0.215 | 0.424 | 0.464 | 0.427 | 0.387 | 0.279
COR-L 105 | 1.37 | 1.04 | 1.26 | 1.06 | 1.13 | 0.653 | 0.969 | 0.852 | 0.391 | 0.669 | 0.406 | 0.355 | 0.35 | 0.31 | 0.268 | 0.64 | 0.685 | 0.792 | 0.579 | 0.498
NCI-H2170 | 0.283 | 0.246 | 0.259 | 0.245 | 0.256 | 0.898 | 0.814 | 0.787 | 0.728 | 0.766 | 0.72 | 0.848 | 0.696 | 0.45 | 0.219 | 0.551 | 0.596 | 0.407 | 0.45 | 0.206
A549 |  |  |  |  |  |  |  |  |  |  |  |  |  |  |  | 0.299 | 0.238 | 0.271 | 0.282 | 0.158
SW 1573 | 0.774 | 0.845 | 0.869 | 0.546 | 0.856 | 0.756 | 0.971 | 0.89 | 0.721 | 0.808 | 0.146 | 0.172 | 0.142 | 0.1 | 0.116 | 0.554 | 0.567 | 0.451 | 0.383 | 0.145
NCI-H1975 | 0.321 | 0.298 | 0.32 | 0.269 | 0.301 | 0.814 | 0.671 | 0.774 | 0.689 | 0.731 | 0.943 | 1.02 | 0.715 | 0.552 | 0.486 | 0.802 | 0.856 | 0.651 | 0.757 | 0.408
Calu-6 |  |  |  |  |  |  |  |  |  |  |  |  |  |  |  | 0.572 |  | 0.457 | 0.388 | 0.252
